Laboratory results taken from PMC8963105, “A Novel Modulator of the Renin–Angiotensin System, Benzoylaconitine, Attenuates Hypertension by Targeting ACE/ACE2 in Enhancing Vasodilation and Alleviating Vascular Inflammation” (Frontiers in Pharmacology, 2022).

Experiments:
p-eNOS^Ser1177 = test: p-eNOS Ser1177 in aorta of SHRs (Western blot); type: in vivo, rat; conditions: vessel of SHRs, oral 14 days
From the text: All three MDAs (BAC, BMC, and BHC) were purchased from Nature-Standard Co., Ltd. (Shanghai, China) and their purities were all over 98%. The anti-hypertensive effects of MDAs were studied in both acute and chronic experiments. The 16-week-old SHRs were used in animal experiments, and each group had six rats. In the acute experiment, drug administration was via i.v. injection. For i.v. injection, the animals were randomly assigned into four groups: vehicle (0.1% DMSO–0.9% salt solution, n = 6), low-dose group (0.6 mg kg^−1 body weight, n = 6), medium-dose group (2 mg kg^−1 body weight, n = 6), and high-dose group (6 mg kg^−1 body weight, n = 6). The drug was administered using a venous catheter. In chronic experiments, the animals were randomly assigned into five groups: vehicle (5% Tween 80–0.9% salt solution, n = 6), captopril group (5 mg kg^−1 body weight, n = 6), low-dose group (3 mg kg^−1 body weight, n = 6), medium-dose group (10 mg kg^−1 body weight, n = 6), and high-dose group (30 mg kg^−1 body weight, n = 6). Oral administration with drug or 5% Tween 80–0.9% salt solution was carried out once a day, and continued for 14 days. […] Blood pressure was recorded in real time.
(§1) The cell samples and tissue sample were collected and placed in ice rapidly. […] Protein concentration in cell lysates was measured using a Bio-Rad DC Protein Assay Kit […]. […]

ACE = ACE protein expression in HUVECs (Western blot, immunofluorescence); type: cell-based, human; conditions: 24 h
From the text: Human umbilical vein endothelial cells (HUVECs) were isolated from umbilical cords as previously described ([Jaffe et al., 1973]). They were purchased from ATCC (cat# CRL-1444, Manassas, VA, United States) and cultured in endothelial cell medium (ECM, ScienCell, Carlsbad, CA, United States) supplemented with 5% FBS, 1% endothelial cell growth supplement, and 1% antibiotics (Sigma, St. Louis, MO, United States). Cells harvested between the third and tenth passages were used in the experiments. Cells were cultured until they were ∼80% confluent. […]
After treatment with different concentrations of BAC (Control, DMSO, 25, 50, and 100 μM, dissolved in 0.1% DMSO–DMEM) for 24 h, the cells were washed with PBS three times, fixed in 4% paraformaldehyde for 20 min, permeabilized with 0.3% Triton X-100 for 20 min, and then blocked with 5% BSA for 30 min at room temperature of 25°C. […] The samples were analyzed using a confocal laser scanning microscope (Zeiss LSM 510 META, Oberkochen, Germany).
as §1

## CCN1CC2(COC)C(O)CC(OC)C34C5CC6(O)C(OC)C(O)C(O)(C5C6OC(=O)c5ccccc5)C(C(OC)C23)C14 (stereo not drawn) [BAC, Benzoylaconitine]
p-eNOS^Ser1177
  p-eNOS^Ser1177: activated
ACE; HUVECs, 25, 50, 100 μM
  protein expression of ACE: inhibit the expression of ACE
ACE; HUVECs, BAC 100 μM with or without proteasome inhibitor MG132 20 or 40 nM
  ACE protein degradation: promote ACE protein degradation
